From US7138411B2, “Substituted benzopyran derivatives for the treatment of inflammation” (G.D. Searle & Co., priority 1997, dated 2006)

melting point | SMILES
159.4 to 160.9 °C | CCOc1cccc2c1OC(C(F)(F)F)C(C(=O)O)=C2 (stereo not shown) [Example 93, 8-Ethoxy-2-trifluoromethyl-2H-1-benzopyran-3-carboxylic acid]
180.9 to 182.4 °C | O=C(O)C1=Cc2cc(Cl)c(C(F)(F)F)cc2OC1C(F)(F)F (stereo not shown) [Example 94, 6-Chloro-2,7-bis(trifluoromethyl)-2H-1-benzopyran-3-carboxylic acid]
204.5 to 206.7 °C | COc1cccc2c1C=C(C(=O)O)C(C(F)(F)F)O2 (stereo not shown) [Example 95, 5-Methoxy-2-(trifluoromethyl)-2H-1-benzopyran-3-carboxylic acid]
227.8 to 228.9 °C | O=C(O)C1=Cc2cc(Oc3ccc(Cl)cc3)cc(Cl)c2OC1C(F)(F)F (stereo not shown) [Example 100]
210.5 to 211.5 °C | CC(C)c1cccc2c1OC(C(F)(F)F)C(C(=O)O)=C2 (stereo not shown) [Example 102, 8-(1-Methylethyl)-2-trifluoromethyl-2H-1-benzopyran-3-carboxylic acid]
238.1 to 239.7 °C | N#Cc1cc(Cl)cc2c1OC(C(F)(F)F)C(C(=O)O)=C2 (stereo not shown) [Example 107, 6-Chloro-8-cyano-2-(trifluoromethyl)-2H-1-benzopyran-3-carboxylic acid]
246.9 to 247.9 °C | O=C(O)C1=Cc2cc(Cl)cc(/C=N/O)c2OC1C(F)(F)F (stereo not shown) [Example 108, 6-Chloro-8-[(hydroxyimino)methyl]-2-(trifluoromethyl)-2H-1-benzopyran-3-carboxylic acid]
174.6 to 178.9 °C | O=C(O)C1=Cc2cc(Cl)cc(CO)c2OC1C(F)(F)F (stereo not shown) [Example 109, 6-Chloro-8-(hydroxymethyl)-2-(trifluoramethyl)-2H-1-benzopyran-3-carboxylic acid]
> 300 °C | O=C(O)C1=Cc2cc(Cl)cc(-c3nc4ccccc4[nH]3)c2OC1C(F)(F)F (stereo not shown) [Example 110, 8-(1H-Benzimidazol-2-yl)-6-chloro-2-(trifluoromethyl)-2H-1-benzopyran-3-carboxylic acid]
171 to 173.5 °C | CC(C)(C)c1ccc2c(c1)OC(C(F)(F)C(F)(F)F)C(C(=O)O)=C2 (stereo not shown) [Example 111, 7-(1,1-Dimethylethyl)-2-(pentafluoroethyl)-2H-1-benzopyran-3-carboxylic acid]
133.8 to 135.4 °C | O=C(O)C1=Cc2cc(Cl)cc(COCc3ccccc3)c2OC1C(F)(F)F (stereo not shown) [Example 113, 6-Chloro-8-(benzyloxymethyl)-2-(trifluoromethyl)-2H-1-benzopyran-3-carboxylic acid]
171.5 to 173.3 °C | O=C(O)C1=Cc2cc(Cl)cc(-c3ccco3)c2OC1C(F)(F)F (stereo not shown) [Example 117, 6-Chloro-8-(2-furanyl)-2-(trifluoromethyl)-2H-1-benzopyran-3-carboxylic acid]
154.4 to 156.4 °C | O=C(O)C1=Cc2cc(Cl)cc(C#CCCCCl)c2OC1C(F)(F)F (stereo not shown) [Example 118, 6-Chloro-8-(5-chloro-1-pentynyl)-2-(trifluoromethyl)-2H-1-benzopyran-3-carboxylic acid]
168.1 to 171.2 °C | CCCC#Cc1cc(Cl)cc2c1OC(C(F)(F)F)C(C(=O)O)=C2 (stereo not shown) [Example 119, 6-Chloro-8-(1-pentynyl)-2-(trifluoromethyl)-2H-1-benzopyran-3-carboxylic acid]
218.3 to 222.4 °C | CC(C)(C)C#Cc1cc(Cl)cc2c1OC(C(F)(F)F)C(C(=O)O)=C2 (stereo not shown) [Example 121, 6-Chloro-8-(3,3-dimethyl-1-butynyl)-2-(trifluoromethyl)-2H-1-benzopyran-3-carboxylic acid]
210.4 to 211.4 °C | O=C(O)C1=Cc2cc(Cl)cc(C#Cc3ccc(Cl)cc3)c2OC1C(F)(F)F (stereo not shown) [Example 122, 6-Chloro-8-[(4-chlorophenyl)ethynyl]-2-(trifluoromethyl)-2H-1-benzopyran-3-carboxylic acid]
217.7 to 218.7 °C | COc1ccc(C#Cc2cc(Cl)cc3c2OC(C(F)(F)F)C(C(=O)O)=C3)cc1 (stereo not shown) [Example 123, 6-Chloro-8-[(4-methoxyphenyl)ethynyl]-2-(trifluoromethyl)-2H-1-benzopyran-3-carboxylic acid]
240.1 to 241.3 °C | O=C(O)C1=Cc2cc(C#Cc3ccccc3)ccc2OC1C(F)(F)F (stereo not shown) [Example 124, 6-(Phenylethynyl)-2-(trifluoromethyl)-2H-1-benzopyran-3-carboxylic acid]
173.1 to 177.4 °C | COc1cccc(-c2cc(Cl)cc3c2OC(C(F)(F)F)C(C(=O)O)=C3)c1 (stereo not shown) [Example 126, 6-Chloro-8-(3-methoxyphenyl)-2-(trifluoromethyl)-2H-1-benzopyran-3-carboxylic acid]
211.4 to 212.5 °C | CSc1ccc(-c2cc(Cl)cc3c2OC(C(F)(F)F)C(C(=O)O)=C3)cc1 (stereo not shown) [Example 127, 6-Chloro-8-[(4-methylthio)phenyl]-2-(trifluoramethyl)-2H-1-benzopyran-3-carboxylic acid]
286.5 to 287.8 °C | CS(=O)(=O)c1ccc(-c2cc(Cl)cc3c2OC(C(F)(F)F)C(C(=O)O)=C3)cc1 (stereo not shown) [Example 128, 6-Chloro-8-[(4-methylsulfonyl)phenyl]-2-(trifluoromethyl)-2H-1-benzopyran-3-carboxylic acid]
206 to 208 °C | O=C(O)C1=Cc2cc(Br)cc(F)c2OC1C(F)(F)F (stereo not shown) [Example 130, 6-Bromo-8-fluoro-2-(trifluoromethyl)-2H-1-benzopyran-3-carboxylic acid]

melting point | SMILES
207 to 210 °C | O=C(O)C1=Cc2cc(-c3ccc(F)cc3)ccc2OC1C(F)(F)F (stereo not shown) [Example 131, 6-(4-Fluorophenyl)-2-(trifluoromethyl)-2H-1-benzopyran-3-carboxylic acid]
197 to 198 °C | O=C(O)C1=Cc2cc(-c3ccccc3)ccc2OC1C(F)(F)F (stereo not shown) [Example 132, 6-Phenyl-2-(trifluoromethyl)-2H-1-benzopyran-3-carboxylic acid]
240 to 241 °C | O=C(O)C1=Cc2cc(F)cc(Cl)c2OC1C(F)(F)F (stereo not shown) [Example 133, 8-Chloro-6-fluoro-2-(trifluoromethyl)-2H-1-benzopyran-3-carboxylic acid]
243 to 244 °C | O=C(O)C1=Cc2cc(I)cc(I)c2OC1C(F)(F)F (stereo not shown) [Example 134, 6,8-Diiodo-2-(trifluoromethyl)-2H-1-benzopyran-3-carboxylic acid]
205 to 206 °C | O=C(O)C1=Cc2cc(-c3ccc(Cl)s3)ccc2OC1C(F)(F)F (stereo not shown) [Example 135, 6-(5-Chloro-2-thienyl)-2-(trifluoramethyl)-2H-1-benzopyran-3-carboxylic acid]
209 to 212 °C | O=C(O)C1=Cc2cc(-c3cccs3)ccc2OC1C(F)(F)F (stereo not shown) [Example 136, 6-(2-thienyl)-2-(trifluoromethyl)-2H-1-benzopyran-3-carboxylic acid]
212 to 213 °C | O=C(O)C1=Cc2cc(-c3ccc(Cl)cc3)ccc2OC1C(F)(F)F (stereo not shown) [Example 137, 6-(4-Chlorophenyl)-2-(trifluoromethyl)-2H-1-benzopyran-3-carboxylic acid]
194 to 196 °C | COc1ccc(-c2cc(Cl)cc3c2OC(C(F)(F)F)C(C(=O)O)=C3)cc1 (stereo not shown) [Example 141, 6-Chloro-8-(4-methoxyphenyl)-2-trifluoromethyl-2H-1-benzopyran-3-carboxylic acid]
143 to 145 °C | C=CC1=C(C(=O)O)C(C(F)(F)F)Oc2ccc(Cl)cc21 (stereo not shown) [Example 142, 6-Chloro-2-(trifluoromethyl)-4-ethenyl-2H-1-benzopyran-3-carboxylic acid]
225.5 to 226.6 °C | O=C(O)C1=C(c2ccccc2)c2cc(Cl)ccc2OC1C(F)(F)F (stereo not shown) [Example 143, 6-Chloro-2-(trifluoromethyl)-4-phenyl-2H-1-benzopyran-3-carboxylic acid]
200.8 to 206.7 °C | O=C(O)C1=C(c2cccs2)c2cc(Cl)ccc2OC1C(F)(F)F (stereo not shown) [Example 144, 6-Chloro-4-(2-thienyl)-2-(trifluoromethyl)-2H-1-benzopyran-3-carboxylic acid]
180.8 to 184.2 °C | Cc1ccc2c(c1)C=C(C(=O)O)C(C(F)(F)F)S2 (stereo not shown) [Example 145, 6-Methyl-2-(trifluoromethyl)-2H-1-benzothiopyran-3-carboxylic acid]
220 to 225 °C (dec.) | Cc1cc(C)c2c(c1)C=C(C(=O)O)C(C(F)(F)F)S2 (stereo not shown) [Example 146, 6,8-Dimethyl-2-(trifluoromethyl)-2H-1-benzothiopyran-3-carboxylic acid]
183.8 to 184.6 °C | CC(C)(C)c1ccc2c(c1)C=C(C(=O)O)C(C(F)(F)F)S2 (stereo not shown) [Example 147, 6-(1,1-Dimethylethyl)-2-(trifluoromethyl)-2H-1-benzothiopyran-3-carboxylic acid]
186.6 to 191.9 °C | Cc1ccc2c(c1)SC(C(F)(F)F)C(C(=O)O)=C2 (stereo not shown) [Example 148, 7-Methyl-2-(trifluoromethyl)-2H-1-benzothiopyran-3-carboxylic acid]
235 to 237 °C | Cc1cc2c(cc1C)SC(C(F)(F)F)C(C(=O)O)=C2 (stereo not shown) [Example 149, 6,7-Dimethyl-2-(trifluoromethyl)-2H-1-benzothiopyran-3-carboxylic acid]
224 to 225 °C | Cc1cccc2c1SC(C(F)(F)F)C(C(=O)O)=C2 (stereo not shown) [Example 150, 8-Methyl-2-(trifluoromethyl)-2H-1-benzothiopyran-3-carboxylic acid]
187 to 190 °C | O=C(O)C1=Cc2ccccc2SC1C(F)(F)F (stereo not shown) [Example 151, 2-(Trifluoromethyl)-2H-1-benzothiopyran-3-carboxylic acid]
225.7 to 227.3 °C | O=C(O)C1=Cc2ccc(Cl)cc2SC1C(F)(F)F (stereo not shown) [Example 153, 7-Chloro-2-(trifluoromethyl)-2H-1-benzothiopyran-3-carboxylic acid]
186.6 to 188.9 °C | O=C(O)C1=Cc2cc(F)c(F)cc2NC1C(F)(F)F (stereo not shown) [Example 159, 6,7-Difluoro-1,2-dihydro-2-(trifluoromethyl)-3-quinolinecarboxylic acid]
127.7 to 128.9 °C | O=C(O)C1=Cc2cc(OC(F)(F)F)ccc2NC1C(F)(F)F (stereo not shown) [Example 162, 1,2-Dihydro-6-(trifluoromethoxy)-2-(trifluoromethyl)-3-quinolinecarboxylic acid]
